The text below walks through data of patent publication US20080268123A1, “Onion Flavoured Compounds and Use” (GIVAUDAN SA, priority 2005, published 2008).

“Also recorded” adds a separate entry of the source.

Test [1] is described as follows: Sensory effects of compounds of formula I in chicken broth (triangle test, trained panel). The conditions noted are these: for kokumi intensity (0-5): broth without additives = 2. The procedure: (§1) Unless otherwise indicated, all sensory tests are triangle tests and are performed according to the guidelines in “Amtliche Sammlung von Untersuchungsverfahren nach § 35 LMBG (Lebensmittel-und Bedarfsgegenständegesetz)”; L 00.90 7 , Untersuchung von Lebensmitteln , Sensorische Prüfverfahren, Dreiecksprüfung (Übernahme der gleichnahmigen Deutschen Norm DIN ISO 4120, Ausgabe Januar 1995), as follows:
(§2) The sensory panel is trained to evaluate the taste of aqueous solutions (4 ml each) of the following standard taste compounds by using a triangle test as described in the literature (Wieser and Belitz, Z. Lebensm. Unters. Forsch., 1975, 159, 65-72): sucrose (40 mmol/L) for sweet taste; citric acid (5 mmol/L) for sour taste; NaCl (12 mmol/L) for salty taste; caffeine (2 mmol/L) for bitter taste; and monosodium glutamate (MSG; 6 mmol/L) for umami taste. For kokumi taste, a solution of glutathione (10 mmol/L) in diluted chicken broth concentrate (Gourmet Bouillon Huhn, Maggi, Singen, Germany; 3 g/100 g bottled water (Evian®)) is prepared and compared to the taste of chicken broth with no glutathione added. All sensory analyses are performed in a sensory panel room at 22-25° C. over three different sessions by a trained panel of 8 to 10 individuals.
(§3) For recording the taste profiles, samples are prepared as indicated in the examples below. Taste profiles of samples are determined in a triangle test in three different sessions. Panellists refrain from eating or drinking for at least 1 hour prior to the session. At the start of the session and before each trial, the subject rinsed with water and expectorated. The participants receive a set of two blanks and one taste sample. Liquid samples are swirled around in the mouth briefly and expectorated. Solid samples are chewed for 20 seconds and then expectorated. […] Each sample with additive is compared to two reference samples without additives.
Sensory tests (triangle test) are performed at least three times for each compound using sensory panels of different individuals to confirm results.
Chicken Broth is prepared by dilution of 3 g chicken broth concentrate (Gourmet Bouillon Huhn; Maggi, Singen, Germany) with 100 ml water (Evian). Additives are added as specified in table below.
The pH-value of all samples is adjusted to 6.5 using formic acid (0.1 mol/L) or sodium hydroxide (0.1 mol/L).
Flavour intensity (onion or kokumi) is rated from 0-5 according to a scale from 0 to 5 (with 5 most intensive). GSH (5 mmol/L) is determined to have an kokumi intensity of 3 in all tests.
The additive is added to a consumable and the sample is homogenised. The samples are presented to the sensory panel directly after homogenisation.
For each sample, flavour intensity is rated and panelists are asked to describe sensory characteristics.

Test [2] can be described thus: Sensory effects of compounds of formula I in water (triangle test, trained panel). The conditions noted are these: additive 5 mmol/L. The procedure:
as §1, §2, §3

Test [3] is described as follows: Onion flavour compounds in tomato soup (sensory panel). The procedure: as §1, §3
Cys-O—C2H5 and γ-Glu-Cys-O—C2H5 are added to tomato soup (Unox, Unilever Bestfoods, Germany, pH 4,5), in the concentrations indicated below.

Test [4] can be described thus: Onion flavour compounds in mushroom cream soup (sensory panel). To be noted: mushroom cream soup pH 6.0, additive 1 mmol/L. The procedure:
as §1, §3
Cys-O—C2H5and γ-Glu-Cys-O—C2H5are added to mushroom cream soup (Unox, Unilever Bestfoods, Germany), pH 6.0 in a concentration of 1 mmol/L samples are evaluated directly after homogenisation.

Test [5] in a line: Onion flavour compounds in barbecue sauce (sensory panel). To be noted: barbecue sauce pH 3.3, additive 5 mmol/L. The procedure:
as §1, §3
Onion flavour compounds as indicated in the table below are added to barbecue sauce (Kraft Foods, Germany), pH 3.3.

Setting [6] is: chicken broth pH 6.5, additive 5 mmol/L.
[7] abbreviates: chicken broth pH 6.5, additive 5 mmol/L, scale 0 to 5 (5 most intensive).
[8] abbreviates: chicken broth pH 6.5, additive 5 mmol/L, scale 0 to 5.
Where [9] appears, read: tomato soup pH 4,5, additive 1 mmol/L.
Where [10] appears, read: tomato soup pH 4,5, additive 5 mmol/L.
Setting [11] is: chicken broth pH 6.5, additive 10 mmol/L (positive control).
Where [12] appears, read: chicken broth pH 6.5, additive 30 mmol/L (positive control).

`N[C@@H](CCC(=O)N[C@@H](CS)C(=O)NCC(=O)O)C(=O)O` [GSH, reduced form, glutathione, reference compound]: in test [1] (setting [6]), the Sensory descriptors entry was “increased kokumi taste”. Besides, the “onion flavour intensity (0-5)” value in test [1] (setting [7]) turned out to be 0. Further, the “kokumi intensity (0-5)” value in test [1] (setting [8]) came to 3.

With `CCOC(=O)CNC(=O)[C@H](CS)NC(=O)CC[C@H](N)C(=O)O` [γ-Glu-Cys-Gly-O—C2H5], in test [2], the Onion flavour intensity is recorded as 0 and the Sensory description entry is on record as “intensely bitter”.

Consider `COC(=O)[C@@H](N)CCSC` [Met-O—CH3], for which, in test [2], the Onion flavour intensity was determined as 1 and the Sensory description result is listed as “slight onion flavour”. The Sensory descriptors result in test [1] (setting [6]) is listed as “slight onion flavour”. In addition, the “onion flavour intensity (0-5)” value in test [1] (setting [7]) is given as 0.5. In addition, the “kokumi intensity (0-5)” value in test [1] (setting [8]) turned out to be 2.

With γ-Glu-Cys(S—C2H5)-Gly-O—C2H5, in test [2], the Onion flavour intensity was determined as 0 and the Sensory description entry is reported as “intensely bitter”.

`COC(=O)[C@@H](N)CO` [Ser-O—CH3]: in test [2], the Onion flavour intensity was 0 and the Sensory description entry is “slightly sweet”.

In turn, `CCOC(=O)[C@@H](N)CS` [Cys-O—C2H5] gave an Onion flavour intensity in test [2] of 3.5. Further, the Sensory description result in test [2] is given as “onion flavour”. For the same compound, the Sensory descriptors result in test [1] (setting [6]) is “onion flavour”. The “onion flavour intensity (0-5)” value in test [1] (setting [7]) was 3. The “kokumi intensity (0-5)” value in test [1] (setting [8]) worked out at 2. For the same compound, the “Test results (sensory description versus reference)” value in test [3] (setting [9]) was “onion like and slightly meaty flavour; also recorded: Preferred, onion like flavour, slightly meaty”; in test [3] (setting [10]) it was “onion like and slightly meaty flavour”; in test [4], “Preferred, onion like flavour”; in test [5], “Preferred, onion like flavour, meaty”. Also, the “panelists indicating an onion like flavour” value in test [4] is given as 7 out of 8.

With `CCOC(=O)[C@@H](N)CCSC` [Met-O—C2H5], in test [2], the Onion flavour intensity stood at 1.5 and the Sensory description entry was “slight onion flavour”. In test [1] (setting [6]), the Sensory descriptors result was “slight onion flavour”. For the same compound, the “onion flavour intensity (0-5)” value in test [1] (setting [7]) is 1.5. In addition, the “kokumi intensity (0-5)” value in test [1] (setting [8]) was 2.

For `COC(=O)[C@@H](N)CS` [Cys-O—CH3], in test [2], the Onion flavour intensity is 2.5 and the Sensory description result was “onion flavour”. For the same compound, in test [1] (setting [6]), the Sensory descriptors result is “onion flavour”. Besides, the “onion flavour intensity (0-5)” value in test [1] (setting [7]) turned out to be 2. In addition, the “kokumi intensity (0-5)” value in test [1] (setting [8]) came out at 2.

For `N[C@@H](CCC(=O)O)C(=O)[O-].[Na+]` [MSG, mono sodium glutamate, reference compound], in test [1] (setting [11]), the Sensory descriptors entry is “increased umami taste”, the “onion flavour intensity (0-5)” value was determined as 0 and the “kokumi intensity (0-5)” value is on record as 2.

With `CSCC[C@H](N)C(=O)O` [Met-OH], in test [2], the Onion flavour intensity is 0 and the Sensory description result is reported as “sweet”.

Regarding `N[C@@H](CS)C(=O)O` [Cys-OH, reference compound], in test [2], the Onion flavour intensity stood at 0 and the Sensory description result is “sweet”. For the same compound, the Sensory descriptors result in test [1] (setting [6]) is recorded as “increased sweetness”. Also, the “onion flavour intensity (0-5)” value in test [1] (setting [7]) is given as 0. Moreover, the “kokumi intensity (0-5)” value in test [1] (setting [8]) stood at 2.

In the case of `CCOC(=O)[C@H](CS)NC(=O)CC[C@H](N)C(=O)O` [γ-Glu-Cys-O—C2H5], the Onion flavour intensity in test [2] was 4.5. In addition, in test [2], the Sensory description result is “onion flavour”. Also, the Sensory descriptors result in test [1] (setting [6]) was “strong onion flavour, increased”. In test [1] (setting [7]), the “onion flavour intensity (0-5)” value came to 4. In test [1] (setting [8]), the “kokumi intensity (0-5)” value turned out to be 3.5. The “Test results (sensory description versus reference)” value is reported as “more roasty; also recorded: Preferred, onion like flavour, meaty, roasty, slightly” in test [3] (setting [9]); “Preferred, strong onion like flavour, meaty, roasty, more” in test [3] (setting [10]); “the observed effect is higher; also recorded: Preferred, strong onion like flavour, meaty,” in test [4]; “more roasty; also recorded: kokumi taste; also recorded: Preferred, strong onion like flavour, meaty,” in test [5]. Besides, the “Panel description in text (difference, preference, kokumi taste)” value in test [3] (tomato soup pH 4,5, samples with 1 mmol/L and 5 mmol/L taken together) is recorded as “kokumi taste”.

For `N[C@@H](CCC(=O)N[C@@H](CS)C(=O)O)C(=O)O` [γ-Glu-Cys-OH, reference compound], in test [2], the Onion flavour intensity came out at 0 and the Sensory description entry is reported as “tasteless”. Besides, in test [1] (setting [6]), the Sensory descriptors result was “increased kokumi taste”. For the same compound, the “onion flavour intensity (0-5)” value in test [1] (setting [7]) is recorded as 0. Also, in test [1] (setting [8]), the “kokumi intensity (0-5)” value is recorded as 4.

Consider `CCOC(=O)[C@@H](N)CO` [Ser-O—C2H5], for which, in test [2], the Onion flavour intensity was 0 and the Sensory description entry is reported as “slightly sweet”.

Regarding `[Cl-].[Na+]` [NaCl, reference compound], in test [1] (setting [12]), the Sensory descriptors result is reported as “increased salt taste”, the “onion flavour intensity (0-5)” value is listed as 0 and the “kokumi intensity (0-5)” value is 2.
